This is an account of results in PubChem BioAssay AID330 (DTP/NCI, 2004).

Several values for one entry are separate records, joined by “and”; a condition that tells them apart may be missing. Identical values can stand only once. Toxic doses and inconclusive results are not listed.

In the test the test system is P388 leukemia ip, CD2F1 mice, survival T/C. The test is described as follows: NCI In Vivo Anticancer Drug Screen. Data for tumor model P388 Leukemia (intraperitoneal) in CD2F1 (CDF1) mice. The conditions noted are these: endpoint: median survival time, higher = longer survival. A digest of the protocol: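 Mice carrying the transplanted tumor received test compound or vehicle. Survival was recorded in each group, and the value is the treated-group measurement divided by that of the vehicle-treated control group.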

Where [1] appears, read: dose: 50.0 mg/kg/injection, schedule: Q01DX009 (ip), vehicle: Klucel (hydroxypropylcellulose) (HPC).
The mark [2] stands for this setting: dose: 100.0 mg/kg/injection, schedule: Q01DX009 (ip), vehicle: Klucel (hydroxypropylcellulose) (HPC).
Setting [3] is: dose: 200.0 mg/kg/injection, schedule: Q01DX009 (ip), vehicle: Klucel (hydroxypropylcellulose) (HPC).
[4] abbreviates: dose: 25.0 mg/kg/injection, schedule: Q01DX009 (ip), vehicle: saline with Tween-80.
Setting [5] is: dose: 100.0 mg/kg/injection, schedule: Q01DX009 (ip), vehicle: saline with Tween-80.
Setting [6] is: dose: 60.0 mg/kg/injection, schedule: Q01DX005 (ip), vehicle: saline with Tween-80.
[7] abbreviates: dose: 120.0 mg/kg/injection, schedule: Q01DX005 (ip), vehicle: saline with Tween-80.
Where [8] appears, read: dose: 240.0 mg/kg/injection, schedule: Q01DX005 (ip), vehicle: saline with Tween-80.
Setting [9] is: dose: 50.0 mg/kg/injection, schedule: Q01DX005 (ip), vehicle: Klucel (hydroxypropylcellulose) (HPC).
Where [10] appears, read: dose: 100.0 mg/kg/injection, schedule: Q01DX005 (ip), vehicle: Klucel (hydroxypropylcellulose) (HPC).
Setting [11] is: dose: 200.0 mg/kg/injection, schedule: Q01DX005 (ip), vehicle: Klucel (hydroxypropylcellulose) (HPC).

As to `O=C(NC(COC1OC(CO)C(O)C(O)C1O)C(O)c1ccccc1)c1ccccc1` (stereo unspecified), the T/C was 107 % of control under setting [1]; 90 % of control (dose: 50.0 mg/kg/injection, schedule: Q01DX009 (ip), vehicle: saline); 108 % of control under setting [2]; 102 % of control (dose: 100.0 mg/kg/injection, schedule: Q01DX009 (ip), vehicle: saline); 113 % of control under setting [3]; 108 % of control (dose: 200.0 mg/kg/injection, schedule: Q01DX009 (ip), vehicle: saline).
Turning to `CC1(C)CCCC(C)(C2CCC3(C)C2C(O)CC2C4(C)CCC(O)C(C)(C)C4CCC23C)O1` (stereo unspecified), the T/C is, setting by setting: (dose: 8.0 mg/kg/injection, schedule: Q01DX009 (ip), vehicle: Klucel (hydroxypropylcellulose) (HPC)) 101 % of control; (dose: 16.0 mg/kg/injection, schedule: Q01DX009 (ip), vehicle: Klucel (hydroxypropylcellulose) (HPC)) 96 % of control; (dose: 32.0 mg/kg/injection, schedule: Q01DX009 (ip), vehicle: Klucel (hydroxypropylcellulose) (HPC)) 99 % of control; (dose: 37.5 mg/kg/injection, schedule: Q01DX009 (ip), vehicle: Klucel (hydroxypropylcellulose) (HPC)) 103 % of control; (dose: 64.0 mg/kg/injection, schedule: Q01DX009 (ip), vehicle: Klucel (hydroxypropylcellulose) (HPC)) 97 % of control; (dose: 75.0 mg/kg/injection, schedule: Q01DX009 (ip), vehicle: Klucel (hydroxypropylcellulose) (HPC)) 94 % of control. Also, the T/C runs as follows: (dose: 150.0 mg/kg/injection, schedule: Q01DX009 (ip), vehicle: Klucel (hydroxypropylcellulose) (HPC)) 100 % of control; (dose: 300.0 mg/kg/injection, schedule: Q01DX009 (ip), vehicle: Klucel (hydroxypropylcellulose) (HPC)) 91 % of control.
Turning to `CCCn1cnc2c(=S)nc[nH]c21`, the T/C under setting [4] is 86 % of control; the T/C (dose: 50.0 mg/kg/injection, schedule: Q01DX009 (ip), vehicle: saline with Tween-80) was 90 % of control; the T/C under setting [5] is 109 % of control.
Turning to `CCCCCCCCc1c(C)nc(N)[nH]c1=O`, the T/C reads like this: under setting [6], 109 % of control; under setting [7], 94 % of control; under setting [8], 88 % of control.
`C=C1C(=O)OC2(C)CCC1CC1OC1(C)CC/C=C(\C)CCC2OC(C)=O` (stereo unspecified): the T/C was 94 % of control (dose: 37.5 mg/kg/injection, schedule: Q01DX001 (ip), vehicle: Klucel (hydroxypropylcellulose) (HPC)); 92 % of control (dose: 75.0 mg/kg/injection, schedule: Q01DX001 (ip), vehicle: Klucel (hydroxypropylcellulose) (HPC)); 91 % of control (dose: 150.0 mg/kg/injection, schedule: Q01DX001 (ip), vehicle: Klucel (hydroxypropylcellulose) (HPC)); 88 % of control (dose: 300.0 mg/kg/injection, schedule: Q01DX001 (ip), vehicle: Klucel (hydroxypropylcellulose) (HPC)).
For `CC1=C(/C=C/C(C)=C/C=C/C(C)=C/C(=O)Nc2ccc(O)cc2)C(C)(C)CCC1`, the T/C is 97 % of control (dose: 25.0 mg/kg/injection, schedule: Q01DX005 (ip), vehicle: saline with Tween-80) and 90 % of control (dose: 50.0 mg/kg/injection, schedule: Q01DX005 (ip), vehicle: saline with Tween-80).
`COC1=CC(=N/Cl)/C=CC/1=N/Cl`: the T/C runs as follows: (dose: 6.25 mg/kg/injection, schedule: Q01DX005 (ip), vehicle: saline) 115 % of control; (dose: 12.5 mg/kg/injection, schedule: Q01DX005 (ip), vehicle: saline) 110 % of control; (dose: 25.0 mg/kg/injection, schedule: Q01DX005 (ip), vehicle: saline) 115 % of control.
Consider `C/C=C/c1ccc(OC(C)C(=O)c2ccc3c(c2)OCO3)c(OC)c1` (stereo unspecified), for which the T/C (dose: 10.0 mg/kg/injection, schedule: Q01DX005 (ip), vehicle: Klucel (hydroxypropylcellulose) (HPC)) is 108 % of control; the T/C (dose: 20.0 mg/kg/injection, schedule: Q01DX005 (ip), vehicle: Klucel (hydroxypropylcellulose) (HPC)) was 101 % of control; the T/C (dose: 40.0 mg/kg/injection, schedule: Q01DX005 (ip), vehicle: Klucel (hydroxypropylcellulose) (HPC)) is 101 % of control.
In the case of `O=[N+]([O-])c1ccc(N2CCN(Cc3ccccc3)CC2)c2c1no[n+]2[O-]`, the T/C by setting is: (dose: 37.5 mg/kg/injection, schedule: Q04DX003 (ip), vehicle: saline) 100 % of control; (dose: 37.5 mg/kg/injection, schedule: Q04DX003 (ip), vehicle: suspension in saline) 104 % of control; (dose: 75.0 mg/kg/injection, schedule: Q04DX003 (ip), vehicle: saline) 97 % of control; (dose: 75.0 mg/kg/injection, schedule: Q04DX003 (ip), vehicle: suspension in saline) 120 % of control; (dose: 150.0 mg/kg/injection, schedule: Q04DX003 (ip), vehicle: saline) 100 % of control; (dose: 150.0 mg/kg/injection, schedule: Q04DX003 (ip), vehicle: suspension in saline) 109 % of control. The T/C was 100 % of control (dose: 300.0 mg/kg/injection, schedule: Q04DX003 (ip), vehicle: saline) and 104 % of control (dose: 300.0 mg/kg/injection, schedule: Q04DX003 (ip), vehicle: suspension in saline).
Turning to `O=S(=O)(O)C1=CC(=N\Cl)/C=CC/1=N/Cl`, the T/C is 100 % of control and 113 % of control (dose: 25.0 mg/kg/injection, schedule: Q01DX005 (ip), vehicle: saline + Tween-80 + alcohol); 107 % of control and 113 % of control and 119 % of control (dose: 50.0 mg/kg/injection, schedule: Q01DX005 (ip), vehicle: saline + Tween-80 + alcohol); 111 % of control and 117 % of control (dose: 100.0 mg/kg/injection, schedule: Q01DX005 (ip), vehicle: saline + Tween-80 + alcohol); 116 % of control and 120 % of control (dose: 200.0 mg/kg/injection, schedule: Q01DX005 (ip), vehicle: saline + Tween-80 + alcohol).
As to `O=[n+]1c2c(n([O-])c3ccccc31)CCCCC2`, the T/C is, setting by setting: (dose: 100.0 mg/kg/injection, schedule: Q04DX003 (ip), vehicle: saline with Tween-80) 99 % of control; (dose: 200.0 mg/kg/injection, schedule: Q04DX003 (ip), vehicle: saline with Tween-80) 101 % of control; (dose: 400.0 mg/kg/injection, schedule: Q04DX003 (ip), vehicle: saline with Tween-80) 92 % of control.
On to `Cn1c(C(=O)N/N=C/C23OC(C)(C)OC2OCC2OC(C)(C)OC23)cc2cc(OCc3ccccc3)ccc21` (stereo unspecified), for which the T/C under setting [9] was 92 % of control, the T/C under setting [10] was 101 % of control and the T/C under setting [11] was 90 % of control.
In the case of `COC(=O)Nc1nc2ccc(C3c4c(n[nH]c4C)CC(C)(O)C3C(C)=O)cc2[nH]1` (stereo unspecified), the T/C under setting [6] is 98 % of control, the T/C under setting [7] was 101 % of control and the T/C under setting [8] was 101 % of control.
Take `CC(=O)N1CCCC2=C1CCCCCC2`: the T/C was 99 % of control (dose: 12.5 mg/kg/injection, schedule: Q04DX003 (ip), vehicle: saline); 104 % of control (dose: 25.0 mg/kg/injection, schedule: Q04DX003 (ip), vehicle: saline); 104 % of control (dose: 50.0 mg/kg/injection, schedule: Q04DX003 (ip), vehicle: saline); 117 % of control (dose: 100.0 mg/kg/injection, schedule: Q04DX003 (ip), vehicle: saline); 101 % of control (dose: 200.0 mg/kg/injection, schedule: Q04DX003 (ip), vehicle: saline); 100 % of control (dose: 400.0 mg/kg/injection, schedule: Q04DX003 (ip), vehicle: saline).
As to `CN=C(NC)c1ccc(NC(=O)c2cc(C(=O)Nc3ccc(C(=NC)NC)cc3)cc([N+](=O)[O-])c2)cc1`, the T/C by setting is: (dose: 6.25 mg/kg/injection, schedule: Q01DX005 (ip), vehicle: Klucel (hydroxypropylcellulose) (HPC)) 107 % of control; (dose: 12.5 mg/kg/injection, schedule: Q01DX005 (ip), vehicle: Klucel (hydroxypropylcellulose) (HPC)) 119 % of control.
Turning to `O=C1NC(=O)C2C1C1C3OC3C2C2C3C(=O)NC(=O)C3C12` (stereo unspecified), the T/C by setting is: (dose: 6.25 mg/kg/injection, schedule: Q01DX009 (ip), vehicle: saline with Tween-80) 102 % of control; (dose: 12.5 mg/kg/injection, schedule: Q01DX009 (ip), vehicle: saline with Tween-80) 116 % of control; under setting [4], 110 % of control; under setting [5], 168 % of control.
In the case of `O=C(CC1=NCCN1)c1ccccc1`, the T/C is, setting by setting: under setting [1], 100 % of control; under setting [2], 102 % of control; under setting [3], 108 % of control.
With `O=S1(=O)CC(N2CCOCC2)C2=C(O1)c1ccccc1OCC2` (stereo unspecified), the T/C is 98 % of control under setting [9], 97 % of control under setting [10] and 88 % of control under setting [11].
